This passage reports IC50 and Kd results from publication PMC4342888, “A search for protein biomarkers links olfactory signal transduction to social immunity” (BMC Genomics, 2015).

pIC50, pKd: −log10 of the molar value. Some results are limits rather than exact numbers.

The target of assay [1] is T1, OBP21 (Apis mellifera, UniProt A0ACM8Q9Q6).
T1 construct: purified recombinant protein
T1 sequence (A0ACM8Q9Q6 17-135): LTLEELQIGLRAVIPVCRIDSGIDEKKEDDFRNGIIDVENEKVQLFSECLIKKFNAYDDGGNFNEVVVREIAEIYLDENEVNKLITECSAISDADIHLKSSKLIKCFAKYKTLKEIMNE
The assay is described as follows: biochemical. Also noted: competitive fluorescence displacement of 2 uM 1-NPN from purified recombinant OBP (2 uM), Tris pH 7.4. The conditions noted are these: IC50 against 2 uM 1-NPN. The protocol:
(§1) The probe was excited at 337 nm and emission spectra were recorded between 380 and 450 nm. […] For determining binding constants, the intensity values corresponding to the maximum of fluorescence emission were plotted against free ligand concentrations. Bound ligand was evaluated from the values of fluorescence intensity assuming that the protein was 100% active, with a stoichiometry of 1:1 protein:ligand at saturation. The curves were linearized using Scatchard plots. Dissociation constants of the competitors were calculated from the corresponding IC50 values (concentrations of ligands halving the initial fluorescence value of 1-NPN), using the equation: KD = [IC50]/1 + [1-NPN]/K1-NPN, [1-NPN] being the free concentration of 1-NPN and K1-NPN being the dissociation constant of the complex Protein/1-NPN.  Figure 7 Potential ligands of OBPs. Twenty nine potential ligands were tested in a competitive binding assay for their binding to OBP16, OBP18 and OBP21. Each purified recombinant protein was mixed with the fluorescent probe N-phenyl-1-naphthylamine (1-NPN), both at the concentration of 2 μM in Tris buffer. Each mixture was titrated with a ligand and the displacement of the fluorescent probe from the complex was used to evaluate the relative dissociation constants, as described in the Methods section. Compounds with higher affinities are shown in the top panel, while compound with lower affinity are shown in the lower panel.

In assay [2] the target is T2, Odorant binding protein 16 (OBP16) (Apis mellifera, UniProt A0ACM8Q9Q1).
T2 construct: recombinant mature protein
T2 sequence (A0ACM8Q9Q1 17-135): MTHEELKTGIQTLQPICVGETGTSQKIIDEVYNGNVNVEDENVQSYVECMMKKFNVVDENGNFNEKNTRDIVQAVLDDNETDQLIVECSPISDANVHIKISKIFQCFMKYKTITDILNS
The assay is described as follows: biochemical. Also on record: competitive fluorescence displacement of 2 uM 1-NPN from purified recombinant OBP (2 uM), Tris pH 7.4. Particulars: for pIC50: IC50 against 2 uM 1-NPN; for pKd: KD calculated from IC50 of 1-NPN displacement. The protocol:
as §1

The target of assay [3] is T3, Odorant binding protein 18 (OBP18) (Apis mellifera, UniProt A0ACM8Q9Q2).
T3 construct: recombinant mature protein
T3 sequence (A0ACM8Q9Q2 17-135): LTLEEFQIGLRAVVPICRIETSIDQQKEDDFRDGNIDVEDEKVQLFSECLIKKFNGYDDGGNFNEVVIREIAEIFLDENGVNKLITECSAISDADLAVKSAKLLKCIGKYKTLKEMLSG
The experiment in a line: biochemical. Also on record: competitive fluorescence displacement of 2 uM 1-NPN from purified recombinant OBP (2 uM), Tris pH 7.4. The conditions noted are these: for pIC50: IC50 against 2 uM 1-NPN; for pKd: KD calculated from IC50 of 1-NPN displacement. How it is done:
as §1

In assay [4] the target is T1, OBP21. The experiment in a line: biochemical. Also noted: competitive fluorescence displacement of 1-NPN (2 uM) from recombinant OBP, emission 380-450 nm. The protocol: as §1
The target of assay [5] is T3, Odorant binding protein 18 (OBP18). The experiment in a line: direct fluorescence titration of purified protein.
The target of assay [6] is T2, Odorant binding protein 16 (OBP16). The assay is described as follows: direct fluorescence titration of purified protein.
Assay [7] addresses T1, OBP21. The experiment in a line: direct fluorescence titration of purified protein. It is filed as binding.

Broadly, the pIC50 is the negative decadic logarithm of the IC50, by convention in mol/L. The term pKd denotes −log10 of the Kd, conventionally taken in molar units. Take `CCCCCC(C)=O` [2-Heptanone]: the negative logarithm of the IC50 (pIC50) was 4.70 at OBP21 [1], 4.74 in assay [2] and 5.62 in assay [3]. The pKd was 5.08 in assay [2], 5.96 in assay [3] and 4.47 on OBP21 [4].

`C=CC(C)(O)CCC=C(C)C` (stereo not shown) [Linalool]: the results for the pIC50 (on OBP21 [1]; in assay [2]; in assay [3]) were less than 4.70, 4.74 and 5.52, respectively. Moreover, the pKd in assay [2] is 5.08; in assay [3] it was 5.89.

For the compound `COc1cc(CC(=O)O)ccc1O` [Homovanillic acid], the results for the pIC50 (on OBP21 [1]; in assay [2]; in assay [3]) were less than 4.70, 4.74 and 5.49, respectively. In addition, the figures for the pKd in assay [2] and in assay [3] were 5.08 and 5.85, respectively.

With `CC(C)CCCC(C)CCO` (stereo not shown) [3,7-dimethyloctanol], the pIC50 on OBP21 [1] was 5.66; in assay [2], 6.30; in assay [3], 6.70. Moreover, the pKd in assay [2] is 6.70; in assay [3], 7.00; on OBP21 [4], 5.43.

`COc1cc(/C=C/CO)ccc1O` [Coniferyl alcohol]: the values for the pIC50 (on OBP21 [1]; in assay [2]; in assay [3]) were less than 4.70, 4.74 and 5.44, respectively. Besides, the pKd is 5.08 in assay [2] and 5.80 in assay [3].

With `CC(=O)OCCc1ccccc1` [2-Phenylethyl acetate], the results for the pIC50 (at OBP21 [1]; in assay [2]; in assay [3]) were 4.74, 5.10 and 5.60, respectively. The pKd in assay [2] was 5.43; in assay [3], 5.96; on OBP21 [4] it was 4.52.

Turning to `CCCCCCCCCCCCCCCCCC(=O)OC` [Methyl stearate], the figures for the pIC50 (on OBP21 [1]; in assay [2]; in assay [3]) were less than 4.70, 6.00 and 6.70, respectively. Besides, the pKd in assay [2] is 6.30; in assay [3] it was 7.00.

Turning to `COc1cc(CCO)ccc1O` [Homovanillic alcohol], the pIC50 on OBP21 [1] is less than 4.70; in assay [2], 4.98; in assay [3], 5.57. Moreover, the values for the pKd in assay [2] and in assay [3] were 5.32 and 5.92, respectively.

As to `c1ccc(Nc2cccc3ccccc23)cc1` [1-NPN, N-phenyl-1-naphthylamine], the pKd (in assay [5]; in assay [6]; on OBP21 [7]) was 5.30 to 6.00 in each case.

On to `CC(C)=CCC/C(C)=C/C=O` [Citral], for which the pIC50 is 4.80 on OBP21 [1], 5.36 in assay [2] and 5.80 in assay [3]. In addition, the results for the pKd (in assay [2]; in assay [3]; at OBP21 [4]) were 5.70, 6.15 and 4.57, respectively.

In the case of `CC(=O)CCCCCCCC(=O)O` [9-Ketodecanoic acid], the pIC50 is 5.40 on OBP21 [1], 5.46 in assay [2] and 5.82 in assay [3]. Further, the pKd in assay [2] was 5.80; in assay [3], 6.15; at OBP21 [4], 5.17.

On to `CCCCCCCCCCCC(=O)O` [Dodecanoic acid], for which the figures for the pIC50 (on OBP21 [1]; in assay [2]; in assay [3]) were 5.00, 6.15 and 6.52, respectively. For the same compound, the pKd is 6.52 in assay [2], 7.00 in assay [3] and 4.77 at OBP21 [4].

In the case of `CCCCCCCC/C=C\CCCCCCCC(=O)O` [oleic acid], the figures for the pIC50 (at OBP21 [1]; in assay [2]; in assay [3]) were 6.52, 6.05 and 7.00, respectively. Moreover, the pKd is 6.40 in assay [2], 7.40 in assay [3] and 6.40 at OBP21 [4].

On to `CC(C)=CCC/C(C)=C/CO` [geraniol], for which the values for the pIC50 (at OBP21 [1]; in assay [2]; in assay [3]) were less than 4.70, 5.96 and 6.52, respectively. Moreover, the results for the pKd in assay [2] and in assay [3] were 6.30 and 7.00, respectively.

As for `CC(=O)CC/C=C(\C)CCC=C(C)C` [Geranylacetone], the pIC50 on OBP21 [1] was 5.82; in assay [2], 5.74; in assay [3] it was 5.74. Besides, the pKd was 6.10 in assay [2], 6.10 in assay [3] and 5.60 at OBP21 [4].

Turning to `OCCc1ccccc1` [2-Phenyl ethanol], the pIC50 at OBP21 [1] is less than 4.70; in assay [2], less than 4.70; in assay [3], 5.60. For the same compound, in assay [3], the pKd is 5.96.

On to `CCCCCCCCCCCCCCCC(=O)OC` [Methyl palmitate], for which the pIC50 is less than 4.70 on OBP21 [1], 6.05 in assay [2] and 6.70 in assay [3]. The pKd was 6.40 in assay [2] and 7.00 in assay [3].

`COC(=O)c1ccc(O)cc1` [Methyl p-hydroxybenzoate]: the pIC50 on OBP21 [1] was 5.30; in assay [2] it was 5.60; in assay [3], 5.72. The pKd is 5.96 in assay [2], 6.10 in assay [3] and 5.07 on OBP21 [4].

For `CCCCCCCCC(=O)O` [Nonanoic acid], the pIC50 on OBP21 [1] was less than 4.70; in assay [2], 5.96; in assay [3] it was 6.52. Also, the results for the pKd in assay [2] and in assay [3] were 6.30 and 7.00, respectively.

As to `O=C/C=C/c1ccccc1` [Cinnamaldehyde], the pIC50 at OBP21 [1] is less than 4.70; in assay [2], 4.70; in assay [3], 5.47. Besides, the pKd is 5.04 in assay [2] and 5.82 in assay [3].

Consider `CC(=O)OC/C=C(\C)CCC=C(C)C` [geranyl acetate], for which the pIC50 on OBP21 [1] is 5.74; in assay [2], 6.70; in assay [3], 6.70. Also, the results for the pKd (in assay [2]; in assay [3]; on OBP21 [4]) were 7.00, 7.00 and 5.51, respectively.

Turning to `CCCCCCCCCCCCCCCC(=O)OCC` [Ethyl palmitate], the pIC50 at OBP21 [1] is less than 4.70; in assay [2], 5.96; in assay [3] it was 6.70. For the same compound, the pKd in assay [2] was 6.30; in assay [3], 7.00.

For `COc1ccccc1/C=C/C=O` [2-Methoxycinnamaldehyde], the pIC50 at OBP21 [1] is 4.70; in assay [2] it was 4.70; in assay [3], 5.42. Besides, the pKd in assay [2] was 5.04; in assay [3], 5.77; on OBP21 [4] it was 4.47.

As to `CCCCCCCC/C=C\CCCCCCCC(N)=O` [Oleamide], the pIC50 was 6.40 at OBP21 [1], 6.00 in assay [2] and 7.00 in assay [3]. Also, the pKd is 6.40 in assay [2], 7.00 in assay [3] and 6.22 on OBP21 [4].

Take `OCc1ccccc1` [Benzyl alcohol]: the pIC50 was less than 4.70 on OBP21 [1], 5.01 in assay [2] and 5.60 in assay [3]. Besides, the pKd in assay [2] is 5.35; in assay [3], 5.96.

Regarding `CC(C)=CCCC(C)CC=O` (stereo not shown) [Citronellal], the pIC50 was 5.10 on OBP21 [1], 5.46 in assay [2] and 5.60 in assay [3]. For the same compound, the pKd in assay [2] was 5.80; in assay [3], 5.96; on OBP21 [4], 4.87.

For `CC(C)CC(=O)O` [3-Methylbutanoic acid], the pIC50 on OBP21 [1] is less than 4.70; in assay [2] it was 4.96; in assay [3], 5.60. In addition, the pKd in assay [2] is 5.30; in assay [3] it was 5.96.

Regarding `CCCCC/C=C\C/C=C\CCCCCCCC(=O)OC` [Methyl linoleate], the pIC50 was less than 4.70 on OBP21 [1], 5.70 in assay [2] and 7.00 in assay [3]. Besides, the pKd was 6.05 in assay [2] and 7.40 in assay [3].

Turning to `Cc1ccccc1C=CC=O` [2-Methylcinnamaldehyde], the pIC50 on OBP21 [1] is 4.74; in assay [2], 5.15; in assay [3], 5.92. Moreover, the pKd in assay [2] was 5.49; in assay [3] it was 6.30; at OBP21 [4], 4.52.

As to `C=CCc1ccc(O)c(OC)c1` [Eugenol], the pIC50 at OBP21 [1] is less than 4.70; in assay [2] it was less than 4.70; in assay [3], 5.64. Further, the pKd in assay [3] was 6.00.
